Measurements reported in ChEMBL document CHEMBL1201862, “PubChem BioAssay data set” (2004).
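Values below derive from 48-hour exposures of cells grown in 96-well plates, with endpoints linearly interpolated between the two concentrations bracketing the appropriate inhibition level. The concentration for 50% growth inhibition is given as GI50.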 Calls of active or inactive are those of the source. No stated cut-off is given here; in the data, active = GI50 up to about 1.1 µM and inactive = higher.

Columns and labels:
Assay in all cases: DTP human tumour cell line panel, 48 h
[1] = test system: HCT-116
[2] = test system: M14
[3] = test system: TK-10
[4] = test system: UACC-62
[5] = test system: SW-620
[6] = test system: CAKI-1
[7] = test system: SK-MEL-28
[8] = test system: SF-268
[9] = test system: A549
[10] = test system: IGROV-1
[11] = test system: UO-31
[12] = test system: UACC-257
[13] = test system: U-251
[14] = test system: OVCAR-3

Measured: GI50

COc1ccccc1NC(=O)CC(=O)NNCC(=O)Nc1nnc(-c2ccccc2)o1
inactive: [1] > 100 µM | [2] > 100 µM | [3] > 100 µM | [4] > 100 µM | [5] > 100 µM | [6] > 100 µM | [7] > 100 µM | [8] > 100 µM | [9] > 100 µM | [10] > 100 µM | [11] > 100 µM | [12] > 100 µM | [13] > 100 µM | [14] > 100 µM

O=C(/C=C1/NC(=O)CS1)Nc1ccccc1
inactive: [1] > 100 µM | [2] > 100 µM | [3] > 100 µM | [4] > 100 µM | [5] > 100 µM | [6] > 100 µM | [7] > 100 µM | [8] > 100 µM | [9] > 100 µM | [10] > 100 µM | [11] > 100 µM | [13] > 100 µM | [14] > 100 µM

CCN(CC)c1ccc(/N=C2/C=CC(=C(C#N)C#N)c3ccccc32)c(C)c1
inactive: [1] 1.95 µM | [2] 1.48 µM | [3] 3.25 µM | [4] 1.38 µM | [5] 1.58 µM | [6] 1.72 µM | [7] 1.64 µM | [9] 2.18 µM | [10] 2.73 µM | [11] 2.29 µM | [12] 2.16 µM | [13] 1.56 µM | [14] 1.86 µM

Nc1ccc(C(=O)N/C(=C\c2cccc([N+](=O)[O-])c2)c2nc3cc(Cl)ccc3[nH]2)cc1
inactive: [2] 74.3 µM | [3] > 100 µM | [4] > 100 µM | [5] > 100 µM | [6] 77.6 µM | [7] > 100 µM | [8] 97.7 µM | [9] 77.3 µM | [10] > 100 µM | [11] 36.1 µM | [13] > 100 µM | [14] > 100 µM

C=CCN(N=O)C(=O)N(CCCC(NC(C)=O)C(=O)NCc1ccccc1)Cc1ccccc1 (stereo unspecified)
inactive: [2] 38.4 µM | [3] 87.1 µM | [4] 49.8 µM | [5] 61.4 µM | [6] 30.5 µM | [7] 79.4 µM | [8] 62.2 µM | [9] 61.9 µM | [10] > 100 µM | [11] 33.1 µM | [12] 57.7 µM | [13] 78.7 µM | [14] 31 µM

CC1(C)OC(COCCOCCCCCO)C(COCCOCCCCCO)O1 (stereo unspecified)
inactive: [1] > 100 µM | [2] > 100 µM | [3] > 100 µM | [4] 82.6 µM | [5] > 100 µM | [6] > 100 µM | [7] > 100 µM | [8] > 100 µM | [9] > 100 µM | [10] > 100 µM | [11] > 100 µM | [12] > 100 µM | [13] > 100 µM | [14] > 100 µM

Cc1ccccc1NC(=O)Cc1nc2ccccc2s1
inactive: [1] 16.5 µM | [2] 12.6 µM | [3] 23.8 µM | [4] 19.4 µM | [5] 19.8 µM | [6] 17.7 µM | [7] 17.7 µM | [8] 17 µM | [9] 16.6 µM | [10] > 10 µM | [11] 11.5 µM | [12] 17.1 µM | [13] 11.8 µM | [14] 18 µM

CCOc1ccc(/N=C/c2cccc3cccnc23)cc1
inactive: [1] 43.8 µM | [2] 44.7 µM | [3] > 100 µM | [4] > 100 µM | [5] 50.5 µM | [6] > 100 µM | [7] > 100 µM | [8] > 100 µM | [9] > 100 µM | [10] > 100 µM | [12] > 100 µM | [13] > 100 µM | [14] > 100 µM

Cc1cc2c(c(C(=O)O)c1C)-c1cccc(Cl)c1C2=O
inactive: [2] > 100 µM | [3] > 100 µM | [4] > 100 µM | [5] > 100 µM | [6] > 100 µM | [7] > 100 µM | [8] > 100 µM | [9] > 100 µM | [10] > 100 µM | [11] > 100 µM | [12] > 100 µM | [13] > 100 µM | [14] > 100 µM

COc1ccc2c(c1)[n+]([O-])c(-c1ccc(Br)cc1)c(N)[n+]2[O-]
inactive: [1] 30.6 µM | [5] 40.2 µM | [6] 51.5 µM | [7] 23.2 µM | [8] 39.4 µM | [9] 32.1 µM | [10] 43.8 µM | [11] 80.2 µM | [12] 32.4 µM | [13] 37.4 µM | [14] 35.4 µM

[Zn+2][N+]12CCN3CCN4CCN(CC1)[PH]432 (stereo unspecified)
inactive: [1] > 100 µM | [2] > 100 µM | [3] > 100 µM | [4] > 100 µM | [5] > 100 µM | [7] > 100 µM | [9] > 100 µM | [10] > 100 µM | [11] > 100 µM | [12] > 100 µM | [13] > 100 µM | [14] > 100 µM

C=CCN(N=O)C(=O)N(CCC)CCCC(NC(C)=O)C(=O)NCc1ccccc1 (stereo unspecified)
inactive: [2] > 100 µM | [3] > 100 µM | [4] > 100 µM | [5] > 100 µM | [6] > 100 µM | [7] > 100 µM | [8] > 100 µM | [9] > 100 µM | [10] > 100 µM | [11] > 100 µM | [12] > 100 µM | [13] > 100 µM | [14] > 100 µM

COC(=O)/C(=N/NC(=O)C[N+](C)(C)C)C(C(=O)OC)C(=O)C(=O)Nc1ccc(F)cc1 (stereo unspecified)
inactive: [1] > 100 µM | [2] > 100 µM | [3] > 100 µM | [4] > 100 µM | [5] > 100 µM | [6] > 100 µM | [7] > 100 µM | [8] > 100 µM | [9] > 100 µM | [10] > 100 µM | [11] > 100 µM | [12] > 100 µM | [13] > 100 µM | [14] > 100 µM

Cc1cc(Cl)ccc1NC(=O)CCCC(=O)C1CCC/C1=N\NC(=O)CC#N (stereo unspecified)
inactive: [1] > 100 µM | [2] > 100 µM | [3] > 100 µM | [4] > 100 µM | [5] > 100 µM | [6] > 100 µM | [7] > 100 µM | [8] > 100 µM | [9] > 100 µM | [10] > 100 µM | [11] > 100 µM | [12] > 100 µM | [13] > 100 µM | [14] > 100 µM

COC(=O)c1ccc(C(=O)OC)c2nc3cc(C)ccc3nc12
inactive: [2] > 100 µM | [3] > 100 µM | [4] > 100 µM | [5] > 100 µM | [6] > 100 µM | [7] > 100 µM | [8] > 100 µM | [9] > 100 µM | [10] > 100 µM | [11] > 100 µM | [12] > 100 µM | [13] > 100 µM | [14] > 100 µM

CC1CC(c2ccccc2)=Nc2ccccc2S1(=O)=O (stereo unspecified)
inactive: [1] 1.75 µM | [2] 20.7 µM | [3] 23 µM | [4] 20.5 µM | [5] 16.2 µM | [6] 22 µM | [7] 16.3 µM | [8] 16.9 µM | [9] 23.6 µM | [10] 17.7 µM | [11] 15.6 µM | [12] 11.6 µM | [13] 18.1 µM | [14] 18.5 µM

Cc1ccc(S(=O)(=O)SCc2ccccc2)cc1
inactive: [1] 7.6 µM | [2] 17.9 µM | [3] > 55.7 µM | [4] 29.4 µM | [5] 4.31 µM | [6] 34.9 µM | [7] 50 µM | [8] 34 µM | [9] 35.8 µM | [10] 39.1 µM | [11] > 92.5 µM | [12] 31.9 µM | [13] 27 µM | [14] 20.8 µM

CN(C)CCNC(=O)c1ccccc1Nc1c(Cl)cccc1Cl
inactive: [1] 7.93 µM | [2] 15.4 µM | [3] 8.13 µM | [4] 16.1 µM | [5] 14.1 µM | [7] 14.8 µM | [8] 16.2 µM | [9] 10.9 µM | [10] 18.2 µM | [11] 4.52 µM | [12] 5.75 µM | [13] 11.6 µM

CCCCCC(=O)OCCOCCOCCOCCOCCOCc1ccccc1
inactive: [1] > 100 µM | [3] > 100 µM | [4] > 100 µM | [5] > 100 µM | [6] > 100 µM | [7] > 100 µM | [8] > 100 µM | [9] > 100 µM | [10] > 100 µM | [12] > 100 µM | [13] > 100 µM | [14] > 100 µM

CC(C)N1C(C)[C@@H](c2ccccc2)O[P@]1(=O)CC1=CCCCC1 (stereo partly specified)
inactive: [1] > 100 µM | [2] 97.5 µM | [3] > 100 µM | [4] 51.5 µM | [5] 61.2 µM | [7] > 100 µM | [8] > 100 µM | [9] > 100 µM | [10] > 100 µM | [11] 74 µM | [12] 68.1 µM | [13] > 100 µM | [14] 62.7 µM
